Experiments:
Assay in all cases: relative viability (nuclei count vs DMSO), 5 days (fraction); higher = more cells survive
Bexarotene + Olaparib = compound: C=C(c1ccc(C(=O)O)cc1)c1cc2c(cc1C)C(C)(C)CCC2(C)C [Bexarotene] + O=C(c1cc(Cc2n[nH]c(=O)c3ccccc23)ccc1F)N1CCN(C(=O)C2CC2)CC1 [Olaparib] (partner 8 µM)
Procedure, shortened: (§1)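 Lung cancer cell lines in 1536-well plates got either a single drug or a fixed anchor-drug dose together with five library-drug doses (not always all listed) in √10 steps, by pin tool, on the day after seeding. Nuclei were counted after 5 days, and relative viability is the treated-to-vehicle ratio of nuclei counts. Values are medians of duplicate plates.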

Bexarotene + Bortezomib = compound: C=C(c1ccc(C(=O)O)cc1)c1cc2c(cc1C)C(C)(C)CCC2(C)C [Bexarotene] + CC(C)C[C@H](NC(=O)[C@H](Cc1ccccc1)NC(=O)c1cnccn1)B(O)O [Bortezomib] (partner 0.002 µM)
Procedure, shortened: as §1

Bexarotene + Trametinib = compound: C=C(c1ccc(C(=O)O)cc1)c1cc2c(cc1C)C(C)(C)CCC2(C)C [Bexarotene] + CC(=O)Nc1cccc(-n2c(=O)n(C3CC3)c(=O)c3c(Nc4ccc(I)cc4F)n(C)c(=O)c(C)c32)c1 [Trametinib] (partner 0.02 µM)
Procedure, shortened: as §1

Bexarotene + Pictilisib = compound: C=C(c1ccc(C(=O)O)cc1)c1cc2c(cc1C)C(C)(C)CCC2(C)C [Bexarotene] + CS(=O)(=O)N1CCN(Cc2cc3nc(-c4cccc5[nH]ncc45)nc(N4CCOCC4)c3s2)CC1 [Pictilisib] (partner 1 µM)
Procedure, shortened: as §1

| Cell Line | relative viability (Bexarotene + Olaparib; first compound 0.08 µM) | relative viability (Bexarotene + Olaparib; first compound 0.253 µM) | relative viability (Bexarotene + Olaparib; first compound 0.8 µM) | relative viability (Bexarotene + Olaparib; first compound 2.53 µM) | relative viability (Bexarotene + Olaparib; first compound 8 µM) | relative viability (Bexarotene + Bortezomib; first compound 0.08 µM) | relative viability (Bexarotene + Bortezomib; first compound 0.253 µM) | relative viability (Bexarotene + Bortezomib; first compound 0.8 µM) | relative viability (Bexarotene + Bortezomib; first compound 2.53 µM) | relative viability (Bexarotene + Bortezomib; first compound 8 µM) | relative viability (Bexarotene + Trametinib; first compound 0.08 µM) | relative viability (Bexarotene + Trametinib; first compound 0.253 µM) | relative viability (Bexarotene + Trametinib; first compound 0.8 µM) | relative viability (Bexarotene + Trametinib; first compound 2.53 µM) | relative viability (Bexarotene + Trametinib; first compound 8 µM) | relative viability (Bexarotene + Pictilisib; first compound 0.08 µM) | relative viability (Bexarotene + Pictilisib; first compound 0.253 µM) | relative viability (Bexarotene + Pictilisib; first compound 0.8 µM) | relative viability (Bexarotene + Pictilisib; first compound 2.53 µM) | relative viability (Bexarotene + Pictilisib; first compound 8 µM) |
| --- | --- | --- | --- | --- | --- | --- | --- | --- | --- | --- | --- | --- | --- | --- | --- | --- | --- | --- | --- | --- |
| NCI-H1975 | 1.03 | 0.906 | 0.783 | 0.851 | 0.836 | 0.414 | 0.376 | 0.452 | 0.428 | 0.346 | 0.387 | 0.38 | 0.307 | 0.331 | 0.333 | 0.361 | 0.347 | 0.319 | 0.342 | 0.386 |
| NCI-H1993 | 0.979 | 1.08 | 0.94 | 1.01 | 0.896 | 1.01 | 0.991 | 0.984 | 0.978 | 1.1 | 0.547 | 0.541 | 0.507 | 0.395 | 0.544 | 0.803 | 0.846 | 0.899 | 0.866 | 0.836 |
| NCI-H2009 | 0.772 | 0.697 | 0.727 | 0.664 | 0.663 | 1.16 | 1.27 | 1.13 | 1.08 | 1 | 0.336 | 0.331 | 0.28 | 0.391 | 0.413 | 0.96 | 0.959 | 0.723 | 0.818 | 0.8 |
| NCI-H2023 | 0.461 | 0.542 | 0.406 | 0.428 | 0.288 | 1.08 | 1.01 | 1.07 | 0.846 | 0.786 | 0.719 | 0.676 | 0.551 | 0.497 | 0.355 | 0.326 | 0.245 | 0.241 | 0.252 | 0.222 |
| NCI-H2085 | 0.691 | 0.709 | 0.693 | 0.676 | 0.694 | 1.04 | 0.918 | 0.929 | 0.946 | 0.939 | 0.486 | 0.59 | 0.4 | 0.449 | 0.535 | 0.449 | 0.461 | 0.431 | 0.386 | 0.476 |
| NCI-H2087 | 0.689 | 0.72 | 0.582 | 0.481 | 0.58 | 0.877 | 0.972 | 0.979 | 0.753 | 0.725 | 0.21 | 0.166 | 0.175 | 0.148 | 0.171 | 1.03 | 0.941 | 0.91 | 0.786 | 0.818 |
| NCI-H2126 | 0.927 | 0.912 | 0.855 | 0.837 | 0.816 | 1.13 | 1.17 | 1.08 | 1.12 | 1.11 | 0.639 | 0.56 | 0.553 | 0.619 | 0.54 | 0.558 | 0.512 | 0.462 | 0.514 | 0.519 |
| NCI-H2228 | 0.825 | 0.799 | 0.631 | 0.591 | 0.492 | 1.08 | 1.3 | 1.05 | 1.11 | 0.841 | 0.54 | 0.641 | 0.389 | 0.457 | 0.417 | 0.476 | 0.572 | 0.358 | 0.454 | 0.336 |

— the supplement of paper PMC10307832
